PubChem BioAssay (NCI)
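48-hour exposure; five concentrations; linearly interpolated endpoints. TGI denotes the concentration required for complete inhibition of growth.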

How the values were obtained:
Assay in all cases: DTP human tumour cell line panel, 48 h
A549 NSCLC = system: A549 NSCLC
COLO 205 colon = system: COLO 205 colon
HCT-15 colon = system: HCT-15 colon
HL-60(TB) leukemia = system: HL-60(TB) leukemia
HOP-62 NSCLC = system: HOP-62 NSCLC
M14 melanoma = system: M14 melanoma
MALME-3M melanoma = system: MALME-3M melanoma
MDA-N = system: MDA-N
MOLT-4 leukemia = system: MOLT-4 leukemia
NCI-H23 lung = system: NCI-H23 lung
NCI-H460 lung = system: NCI-H460 lung
OVCAR-3 ovarian = system: OVCAR-3 ovarian
OVCAR-8 ovarian = system: OVCAR-8 ovarian
SF-295 CNS = system: SF-295 CNS
SK-MEL-5 melanoma = system: SK-MEL-5 melanoma
SNB-75 CNS = system: SNB-75 CNS
SW-620 colon = system: SW-620 colon
UACC-257 melanoma = system: UACC-257 melanoma
UO-31 renal = system: UO-31 renal
UACC-62 melanoma = system: UACC-62 melanoma

Row | SMILES | TGI (A549 NSCLC) [µM] | TGI (COLO 205 colon) [µM] | TGI (HCT-15 colon) [µM] | TGI (HL-60(TB) leukemia) [µM] | TGI (HOP-62 NSCLC) [µM] | TGI (M14 melanoma) [µM] | TGI (MALME-3M melanoma) [µM] | TGI (MDA-N) [µM] | TGI (MOLT-4 leukemia) [µM] | TGI (NCI-H23 lung) [µM] | TGI (NCI-H460 lung) [µM] | TGI (OVCAR-3 ovarian) [µM] | TGI (OVCAR-8 ovarian) [µM] | TGI (SF-295 CNS) [µM] | TGI (SK-MEL-5 melanoma) [µM] | TGI (SNB-75 CNS) [µM] | TGI (SW-620 colon) [µM] | TGI (UACC-257 melanoma) [µM] | TGI (UO-31 renal) [µM] | TGI (UACC-62 melanoma) [µM]
1 | [N-]=[N+]=Nc1c(-c2ccccc2)c(Cl)nc2ccccc12 | > 100 | 44.7 | > 100 | > 100 | > 100 | > 100 | > 100 | > 100 | > 100 | > 100 | > 100 | > 100 | > 100 | > 100 | 34.5 | > 100 | > 100 | 59.8 | > 100 | –
2 | O=C(O[C@H]1[C@@H](O)[C@H](n2cnc3c(Cl)ncnc32)O[C@@H]1COC(c1ccccc1)(c1ccccc1)c1ccccc1)c1ccccc1 | > 100 | 29.3 | > 100 | 40.7 | 51.7 | > 100 | – | > 100 | 17.9 | > 100 | 64.9 | 35 | > 100 | 53.9 | 31.8 | > 100 | > 100 | 41.5 | 2.73 | > 100
3 | NNC(=O)c1ccc(-n2nnc(C(=O)NN)c2C(=O)NN)cc1 | > 100 | > 100 | > 100 | > 100 | > 100 | > 100 | > 100 | > 100 | > 100 | > 100 | > 100 | > 100 | > 100 | > 100 | > 100 | – | – | > 100 | > 100 | –
4 | COc1ccc(-c2c(N)n(-c3nc4ccccc4s3)c(=O)c3cc([N+](=O)[O-])ccc23)cc1 | 23.3 | – | > 100 | > 100 | 27 | 47.6 | 93.7 | > 100 | 49.2 | 45.2 | 32.5 | 35.4 | 23.2 | 97.1 | – | 24.7 | > 100 | > 100 | 46.7 | > 100
5 | Cc1ccc(N2C(=O)C3c4[nH]c5ccccc5c4C4CCC(C(C)(C)C)CC4C3C2=O)cc1 (stereo unspecified) | 23.1 | 22.5 | > 100 | > 74.9 | 11.6 | 35.6 | 22.6 | 44.1 | 9.2 | 32.4 | 17.2 | 8.62 | 20.9 | 24.3 | 36.4 | – | > 47.4 | 40.5 | 31.3 | 31
6 | CC(C)[C@@H]1NC(=O)[C@H]2N=C(O[C@@H]2C)[C@@H]2CCCN2C(=O)[C@H](Cc2ccccc2)NC(=O)[C@@H]2CSC(=N2)[C@@H](Cc2ccccc2)NC(=O)[C@@H]2CSC1=N2 | > 50 | > 50 | > 50 | 41.3 | > 50 | > 50 | > 50 | > 50 | > 50 | > 50 | – | > 50 | > 50 | > 50 | > 50 | 6.28 | > 50 | > 50 | > 50 | > 50
